In patent publication US12194082B2, “Compositions and methods for treatment of homocystinuria” (THE REGENTS OF THE UNIVERSITY OF COLORADO, priority 2016, dated 2025):

Columns and labels:
Hcy, Cth, Cys = assay: Plasma metabolites in surviving treated KO mice (trough and peak); format: in vivo; details: 7.5 mg/kg 3x weekly
Experimental: Plasma metabolites homocysteine, cystathionine and cysteine were determined by stable-isotope-dilution liquid chromatography mass spectrometry as previously described in (Allen et al., 1993, Metabolism, 42: 1448-1460). Measurements of total non-protein bound homocysteine and other aminothiols as well as of amino acids in tissue were performed as described in (Maclean et al., 2010b. Mol. Genet. Metab. 101, 153-162). Metabolites were determined by stable-isotope-dilution liquid chromatography mass spectrometry.
Metabolite levels in surviving KO mice at age of about 4-5 weeks were measured after a weekend washout (trough) and 24 hours after the last injection (peak) using the experimental procedure in Example 1.

KO mice = assay: DEXA bone mineralization and body composition in KO mice; format: in vivo, mouse; details: 7.5 mg/kg SC 3x/week from day 2 to about 5 months
Experimental: A PIXImusII DEXA scanner (GE Lunar Medical Systems) specifically designed for scanning small animals such as mice was used for DEXA analysis. This machine enabled quick and efficient determination of the body composition (lean, fat mass, and bone density) of a mouse before terminal tissue extraction procedures. Mice were fasted for 4 hours prior to the DEXA measurement to remove food from the gastro-intestinal tract. Mice were then anesthetized using IP bolus injection of 60 mg/kg ketamine and 15 mg/kg xylazine and placed on a tray in the DEXA machine. After the measurement was done (3˜5 minutes), the mice were removed from the DEXA machine and used in terminal procedures, such as tissue extractions.
The bone mineral density (BMD) and bone mineral content (BMC) were analyzed by DEXA for three groups of mice: +/− healthy heterozygous controls (n=4M+6F), affected KO controls (n=5M+13F), and 20NHS PEG-htCBS C15S (C15S/ME-200GS)-treated KO mice (n=6M+15F). The 20NHS PEG-htCBS C15S-treated mice were administered 7.5 mg/kg subcutaneously (SC) three times a week from day 2 to about 5 months. All −/− KO mice were treated for the initial 5 W (from 2 to 35 days of age) to prevent neonatal lethality.

I278T mice = assay: Eye defects (ciliary zonule) in I278T mice; format: in vivo, mouse; details: 7.5 mg/kg SC 3x/week from 2 days to 4 months of age
Experimental: Mice were subjected to perfusion fixation with 4% paraformaldehyde in 1×PBS pH 7.4 (4% PFA) to preserve the walls of the eye globe. Eyes were carefully surgically removed, submerged into 4% PFA and a small hole was carefully made in the posterior globe of the eye right below the optic nerve to allow the fixative to permeate to the interior of the eye and fixate the structures overnight at 4° C. The samples were washed 3 times using filtered 1×PBS pH 7.4. After washing, the posterior globe of the eye was carefully dissected down to the level of the ciliary epithelium to expose the ciliary zonule. The sample was placed in 8% BSA blocking solution for 2 hours with shaking. After blocking, MAGP1 antibodies (Sigma) diluted 1:50 in 4% BSA were added to the sample and stored at 4° C. overnight. The next day, the sample was washed 6 times using 1×PBS pH 7.4, and Alexa 488 secondary antibodies (1:200, Invitrogen) were added to the sample and incubated for 2 hours at room temperature with shaking. […]
The changes in metabolite levels in plasma were measured in I278T (+/−) healthy heterozygous control mice, untreated −/− affected homozygous control mice, and 20NHS PEG-htCBS C15S-treated −/− homozygous I278T mice. […] Levels measured beginning at 72 hours after the injection as mice were on the treatment from 2 days of age.

[1] = system: I278T −/− homozygous mice; assay: Facial alopecia in I278T mice; format: in vivo, mouse; details: 3 times per week, start W24-W28, up to about 1 year
Experimental: 3 W old mice not showing any signs of facial alopecia were split into 2 groups. The first group (n=3 males) was injected with 7.5 mg/kg three times per week with 200MA0B PEG-htCBS C15S for a period of 6 weeks. Physical look was recorded before the experiment and monitored weekly, then bi-weekly after the 6 W injection regimen. Metabolite levels were checked before the experiment and 24 hours after the last injection, i.e. after the 6 W injection regimen.
The second group (n=3; 2 males, 1 female) was continuously injected with 7.5 mg/kg of 200MA0B PEG-htCBS C15S administered subcutaneously from 3 W of age until 41 weeks of age. Weight was initially monitored weekly. Physical look was recorded before the experiment and was monitored weekly or bi-weekly after the initial 6 W injection regimen. Metabolite levels were checked before the experiment and 24 hours after the last injection of initial 6 W injection regiment and then followed weekly or bi-weekly.
The I278T mice, which were at least 120D (W17) old and had visible, fully developed facial alopecia, were split into 2 groups. […] Metabolite levels were determined prior to the treatment initiation and measured during the study 24 hours after the injection, and weight and physical look were initially monitored weekly, and later bi-weekly.

For “20NHS PEG-htCBS C15S: htCBS C15S PEGylated with ME-200GS PEG (20 kDa linear NHS ester-activated PEG)”, the “plasma Cys” value (Hcy, Cth, Cys; 24 hours post-dose) was 176 ± 6 µM, the “plasma Hcy” value (Hcy, Cth, Cys; 24 hours post-dose) was 96 ± 8 µM and the “plasma Cys” value (Hcy, Cth, Cys; 72 hours post-dose) was 106 ± 6 µM. The “plasma Hcy” value (Hcy, Cth, Cys; 72 hours post-dose) was 179 ± 10 µM, the “BMD vs control groups” value (KO mice) was “significantly higher BMD than both control groups” and the “osteoporosis and body composition (DEXA)” value (KO mice) was “completely prevented profound osteoporosis and improved body composition”. The “eye defects (zonular fibers)” value (I278T mice) was “positive effect on the eye defects” and the “animals responding (reversal of fully developed facial alopecia)” value [1] was 4 out of 4.
